Measured values from US8017612B2, “Piperazine compound and use thereof as a HCV polymerase inhibitor” (priority 2006, dated 2011).

Columns and labels:
[1] = target: T1, HCV polymerase (NS5B) type 1b (Hepatitis C virus genotype 1b, UniProt P26663); test: Assay of enzyme (HCV polymerase) inhibitory activity, type 1b enzyme; format: biochemical, HCV BK strain (type 1b)
T1 construct: a region encoding NS5B (J Virol 1991 March, 65(3), 1105-13, 544 amino acids after deletion of 47 amino acids on the C-terminal); 6xHis (C); made in house; host or cells: Escherichia coli
How it was run: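 IC50 derived from [3H]UTP incorporation into TCA-insoluble RNA, compared with and without test compound. Reaction (25 °C, 60 min, Tris pH 7.5, 5 mM MgCl2): E. coli-expressed 1b NS5B Δ47 with His tag at 0.5 μg/ml, 5 μg/ml run-off substrate RNA, ATP/GTP/CTP 50 μM, UTP 2 μM.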

[2] = target: T2, HCV polymerase (NS5B) type 1a (Hepatitis C virus genotype 1a, UniProt P26664); test: Assay of enzyme (HCV polymerase) inhibitory activity, type 1a enzyme; format: biochemical, HCV type 1a (cloned from the blood of patients)
T2 construct: made in house; host or cells: Escherichia coli (by the 'similar method' of the 1b enzyme)
How it was run: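 Reactions ran 60 min at 25° C in 20 mM Tris-HCl pH 7.5, 5 mM MgCl2, 50 mM NaCl, holding genotype 1a NS5B (1.5 μg/ml, Δ47 C-terminus, 6His), substrate RNA 5 μg/ml, UTP 2 μM with tritiated UTP and other NTPs 50 μM. IC50 derived from incorporated radiolabel in filter-trapped RNA relative to uninhibited reaction.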

[3] = HCV polymerase inhibitory activity (IC50), 1b, type 1b enzyme 0.5 μg/ml, 25° C., 60 min
[4] = HCV polymerase inhibitory activity (IC50), 1a, type 1a enzyme 1.5 μg/ml, 25° C., 60 min
[5] = HCV polymerase inhibitory activity IC50, 1b, type 1b enzyme
[6] = HCV polymerase inhibitory activity IC50, 1a, type 1a enzyme

Row | Structure (SMILES) | IC50 [1, 3] [nM] | IC50 [2, 4] [nM] | IC50 [1, 5] [nM] | IC50 [2, 6] [nM]
1 | COCC(=O)N1CCN(S(=O)(=O)c2ccc(C(C)C)cc2)C(C(=O)NCc2ccc(C(F)(F)F)cc2)C1 (stereo not drawn) [Example 57, 1-(4-isopropyl-benzenesulfonyl)-4-(2-methoxy-acetyl)-piperazine-2-carboxylic acid 4-trifluoromethyl-benzylamide] | > 1000 | > 1000 | – | –
2 | Cc1nc(N2CCN(S(=O)(=O)c3ccc(OC(F)(F)F)cc3)[C@@H](C(=O)NCc3ccc(C(C)(C)C)cc3)C2)sc1C#N [Example 577, (R)-4-(5-cyano-4-methyl-thiazol-2-yl)-1-(4-trifluoromethoxy-benzenesulfonyl)-piperazine-2-carboxylic acid 4-tert-butyl-benzylamide] | < 100 | < 100 | – | –
3 | Cc1nc2nc(N3CCN(S(=O)(=O)c4ccc(OC(F)(F)F)cc4)[C@@H](C(=O)NCc4ccc(OC(F)(F)F)cc4)C3)sc2c(=O)[nH]1 [Example 910, (R)-4-(5-methyl-7-oxo-6,7-dihydro-thiazolo[4,5-d]pyrimidin-2-yl)-1-(4-trifluoromethoxy-benzenesulfonyl)-piperazine-2-carboxylic acid 4-trifluoromethoxy-benzylamide] | – | – | < 100 | < 100
4 | Cc1csc(N2CCN(S(=O)(=O)c3ccc(C(C)C)cc3)C(C(=O)NCc3ccc(C(F)(F)F)cc3)C2)n1 (stereo not drawn) [Example 115, 1-(4-isopropyl-benzenesulfonyl)-4-(4-methyl-thiazol-2-yl)-piperazine-2-carboxylic acid 4-trifluoromethyl-benzylamide] | > 1000 | > 1000 | – | –
5 | CCCc1ccc(CNC(=O)[C@H]2CN(c3cc(C)c(C(N)=O)nn3)CCN2S(=O)(=O)c2ccc(OC(F)(F)F)cc2)cc1 [Example 494, 4-methyl-6-[(R)-3-(4-propyl-benzylcarbamoyl)-4-(4-trifluoromethoxy-benzenesulfonyl)-piperazin-1-yl]-pyridazine-3-carboxylic acid amide] | < 100 | < 100 | – | –
6 | CC(C)(C)c1ccc(CNC(=O)[C@H]2CN(C(=O)/C=C/C(=O)O)CCN2S(=O)(=O)c2ccc(OC(F)(F)F)cc2)cc1 [Example 668, (E)-4-[(R)-3-(4-tert-butyl-benzylcarbamoyl)-4-(4-trifluoromethoxy-benzenesulfonyl)-piperazin-1-yl]-4-oxo-but-2-enoic acid] | – | – | > 1000 | > 1000
7 | CCc1ccc(S(=O)(=O)N2CCN(C(C)=O)CC2C(=O)NCc2ccc(C(F)(F)F)cc2)cc1 (stereo not drawn) [Example 60, 4-acetyl-1-(4-ethyl-benzenesulfonyl)-piperazine-2-carboxylic acid 4-trifluoromethyl-benzylamide] | > 1000 | > 1000 | – | –
8 | CN(C)c1ccc(CNC(=O)[C@H]2CN(c3cnc(C(=O)O)cn3)CCN2S(=O)(=O)c2ccc(OC(F)(F)F)cc2)cc1 [Example 399, (R)-3-(4-dimethylamino-benzylcarbamoyl)-4-(4-trifluoromethoxy-benzenesulfonyl)-3,4,5,6-tetrahydro-2H-[1,2′]bipyrazinyl-5′-carboxylic acid] | < 100 | < 100 | – | –
9 | CC(C)c1ccc(CNC(=O)[C@H]2CN(C(=O)Nc3cccnc3)CCN2S(=O)(=O)c2ccc(C(F)(F)F)cc2)cc1 [Example 211, (R)-4-(4-trifluoromethyl-benzenesulfonyl)-piperazine-1,3-dicarboxylic acid 3-(4-isopropyl-benzylamide) 1-pyridin-3-ylamide] | 100 to 1000 | 100 to 1000 | – | –
10 | CN(C)CC(=O)N1CCN(S(=O)(=O)c2ccc(I)cc2)C(C(=O)NCc2ccc(N(C)C)cc2)C1 (stereo not drawn) [Example 95, 4-(2-dimethylamino-acetyl)-1-(4-iodo-benzenesulfonyl)-piperazine-2-carboxylic acid 4-dimethylamino-benzylamide] | > 1000 | > 1000 | – | –
11 | O=C(NCc1ccc(OC(F)F)c(F)c1)[C@H]1CN(c2nc3nc(C(F)(F)F)ncc3s2)CCN1S(=O)(=O)c1ccc(C(F)(F)F)cc1 [Example 1085, (R)-1-(4-trifluoromethyl-benzenesulfonyl)-4-(5-trifluoromethyl-thiazolo[4,5-d]pyrimidin-2-yl)-piperazine-2-carboxylic acid 4-difluoromethoxy-3-fluoro-benzylamide] | – | – | < 100 | < 100
12 | CCCc1ccc(S(=O)(=O)N2CCN(c3nc(C)c(C(N)=O)s3)C[C@@H]2C(=O)NCc2ccc(C(C)C)cc2)cc1 [Example 333, (R)-4-(5-carbamoyl-4-methyl-thiazol-2-yl)-1-(4-propyl-benzenesulfonyl)-piperazine-2-carboxylic acid 4-isopropyl-benzylamide] | < 100 | < 100 | – | –
13 | O=C(NCc1ccc(OC(F)(F)F)cc1)[C@H]1CN(c2nc3cnncc3s2)CCN1S(=O)(=O)c1ccc(C(F)(F)F)cc1 [Example 897, (R)-4-thiazolo[4,5-d]pyridazin-2-yl-1-(4-trifluoromethyl-benzenesulfonyl)-piperazine-2-carboxylic acid 4-trifluoromethoxy-benzylamide] | – | – | < 100 | < 100
14 | O=C(NCc1ccc(OC(F)(F)F)c(F)c1)[C@H]1CN(c2nc3nc(C4CC4)ncc3s2)CCN1S(=O)(=O)c1ccc(OC(F)(F)F)cc1 [Example 1102, (R)-4-(5-cyclopropyl-thiazolo[4,5-d]pyrimidin-2-yl)-1-(4-trifluoromethoxy-benzenesulfonyl)-piperazine-2-carboxylic acid 3-fluoro-4-trifluoromethoxy-benzylamide] | – | – | < 100 | < 100
15 | CCC(F)(F)c1ccc(CNC(=O)[C@H]2CN(c3cnc4cncnc4n3)CCN2S(=O)(=O)c2ccc(-c3cccc(O)c3)cc2)cc1 [Example 725, (R)-1-(3′-hydroxy-biphenyl-4-sulfonyl)-4-pteridin-7-yl-piperazine-2-carboxylic acid 4-(1,1-difluoro-propyl)-benzylamide] | – | – | < 100 | < 100
16 | Cc1nc(N2CCN(S(=O)(=O)c3ccc(C(F)(F)F)cc3)[C@@H](C(=O)NCc3ccc(C(C)C)cc3)C2)sc1C(=O)O [Example 6, 2-[(R)-3-(4-isopropyl-benzylcarbamoyl)-4-(4-trifluoromethyl-benzenesulfonyl)-piperazin-1-yl]-4-methyl-thiazole-5-carboxylic acid] | < 100 | < 100 | – | –
17 | CN(C)c1ccc(CNC(=O)[C@H]2CN(c3cnc(C(=O)O)cn3)CCN2S(=O)(=O)c2ccc(OC(F)(F)F)cc2)cn1 [Example 407, (R)-3-[(6-dimethylamino-pyridin-3-ylmethyl)-carbamoyl]-4-(4-trifluoromethoxy-benzenesulfonyl)-3,4,5,6-tetrahydro-2H-[1,2′]bipyrazinyl-5′-carboxylic acid] | < 100 | 100 to 1000 | – | –
18 | O=C(NCc1ccc(OC(F)F)cc1)[C@H]1CN(c2nc3nc(C4CC4)ncc3s2)CCN1S(=O)(=O)c1ccc(OC(F)(F)F)cc1 [Example 1017, (R)-4-(5-cyclopropyl-thiazolo[4,5-d]pyrimidin-2-yl)-1-(4-trifluoromethoxy-benzenesulfonyl)-piperazine-2-carboxylic acid 4-difluoromethoxy-benzylamide] | – | – | < 100 | < 100
